The assay has as its target T1, E. coli DdlB enzyme (D-alanine:D-alanine ligase) (Escherichia coli, UniProt P07862).
T1 construct: made in house; host or cells: E. coli
Description: biochemical. The note with it: for remaining activity at 1900 µM: tested concentration 1.9 mM; for remaining activity at 500 µM: at 0.5 mM; for remaining activity at 1000 µM: at 1 mM; for remaining activity at 1500 µM: at 1.5 mM; for remaining activity at 2100 µM: tested concentration 2.1 mM; for remaining activity at 2200 µM: tested concentration 2.2 mM; for remaining activity at 2500 µM: tested concentration 2.5 mM; for remaining activity at 1800 µM: tested concentration 1.8 mM; for remaining activity at 3200 µM: tested concentration 3.2 mM; for remaining activity at 2300 µM: tested concentration 2.3 mM; for remaining activity at 2000 µM: tested concentration 2.0 mM; for remaining activity at 1700 µM: tested concentration 1.7 mM. As to the method:
The fragment library was assayed in a DdlB inhibition assay, where fragments were tested for their ability to inhibit the D-Ala-adding activity of DdlB ligase. The orthophosphate formed during the enzymatic reaction was measured spectrophotometrically using malachite green reagent.
A recombinant E. coli DdlB enzyme (D-alanine:D-alanine ligase) was expressed in E. coli[11]. […] The final DMSO concentration was 5%. […] All experiments were performed in duplicates. […] IC50 values were determined by measuring the residual activities in quadruplicate at seven different compound concentrations and calculated using in GraphPad Prism (GraphPad Software, San Diego, CA, USA).

The mark [1] stands for this setting: residual activity, read-out: DdlB RA.
The mark [2] stands for this setting: at 5 mM, read-out: DdlB inhibition, RA (Residual Activity).
[3] abbreviates: read-out: DdlB inhibition, RA (Residual Activity).
Where [4] appears, read: fragment library screening, read-out: DdlB RA.

Where two headings read alike, the source gives them in different places.

This is an account of results in paper PMC9718554, “Discovery of a fragment hit compound targeting D-Ala:D-Ala ligase of bacterial peptidoglycan biosynthesis” (Journal of Enzyme Inhibition and Medicinal Chemistry, 2022).

For `CN1CCC2(CC1)CN(C1CCC1)Cc1ccccc1O2` [CM3852-0302], the remaining activity at 1900 µM under setting [1] worked out at 86%. On to `N#Cc1ccc(O)cc1F` [Compound 00CS-0032], for which the remaining activity at 3600 µM (residual activity of DdlB, fragment library screening, tested concentration 3.6 mM, read-out: DdlB RA) turned out to be 94%. `O=C(O)c1cnn2c(-c3ccccc3)ccnc12` [Compound 9, 7-Phenylpyrazolo[1,5-a]pyrimidine-3-carboxylic acid]: the remaining activity at 5000 µM under setting [2] was found to be 90%. On to `Cc1ccc(-c2ccnc3c(C(=O)O)cnn23)cc1` [Compound 10, 7-(p-Tolyl)pyrazolo[1,5-a]pyrimidine-3-carboxylic acid], for which the remaining activity at 500 µM under setting [3] was determined as 101%.

For the compound `Cc1ccc(-c2ccnc3c(C(=O)O)cnn23)cc1C` [Compound 11, 7–(3,4-Dimethylphenyl)pyrazolo[1,5-a]pyrimidine-3-carboxylic acid], the remaining activity at 500 µM under setting [3] is 100%.

`O=C(O)c1cnn2c(-c3ccc(Cl)cc3)ccnc12` [Compound 12, 7–(4-Chlorophenyl)pyrazolo[1,5-a]pyrimidine-3-carboxylic acid]: the remaining activity at 1000 µM under setting [3] came out at 90%. For the same compound, under setting [2], the remaining activity at 5000 µM is 0%. For `O=C(O)c1cnn2c(-c3cccc([N+](=O)[O-])c3)ccnc12` [Compound 13, 7–(3-Nitrophenyl)pyrazolo[1,5-a]pyrimidine-3-carboxylic acid], the remaining activity at 500 µM under setting [3] stood at 89%.

Take `O=C(O)c1cnn2c(-c3ccc4c(c3)OCO4)ccnc12` [Compound 14, 7-(Benzo[d][1,3]dioxol-5-yl)pyrazolo[1,5-a]pyrimidine-3-carboxylic acid]: under setting [3], the remaining activity at 500 µM was 100%. For `O=C(O)c1cnn2c(-c3cccs3)ccnc12` [Compound 15, 7-(Thiophen-2-yl)pyrazolo[1,5-a]pyrimidine-3-carboxylic acid], under setting [3], the remaining activity at 1000 µM came to 96%.

As for `O=C(O)c1cnn2c(-c3ccsc3)ccnc12` [Compound 16, 7-(Thiophen-3-yl)pyrazolo[1,5-a]pyrimidine-3-carboxylic acid], under setting [3], the remaining activity at 500 µM turned out to be 89%. `Cc1nn(C)cc1-c1ccnc2c(C(=O)O)cnn12` [Compound 17, 7–(1,3-Dimethyl-1H-pyrazol-4-yl)pyrazolo[1,5-a]pyrimidine-3-carboxylic acid]: the “DdlB dose-response curve shape” value was “Nonsigmoidal curve”. In addition, under setting [2], the remaining activity at 5000 µM turned out to be 26%. As to `O=C(O)c1cc2nccc(-c3cccs3)n2n1` [Compound 18, 7-(Thiophen-2-yl)pyrazolo[1,5-a]pyrimidine-2-carboxylic acid], the remaining activity at 1500 µM under setting [3] came to 87%. The remaining activity at 5000 µM under setting [2] was found to be 69%. On the same counts, the results for `O=C(O)c1cc2nccc(-c3ccccc3)n2n1` [Compound 19, 7-Phenylpyrazolo[1,5-a]pyrimidine-2-carboxylic acid] are 90% and 50%.

For the compound `CCOC(=O)c1cnn2c(-c3ccc(C)c(C)c3)ccnc12` [Compound 20, Ethyl 7–(3,4-dimethylphenyl)pyrazolo[1,5-a]pyrimidine-3-carboxylate], the remaining activity at 500 µM under setting [3] amounted to 100%. On the same count and under the same terms, as for `NC(=O)c1cnn2c(-c3ccccc3)ccnc12` [Compound 21, 7-Phenylpyrazolo[1,5-a]pyrimidine-3-carboxamide], the figure is 96%. In the case of `Cc1cccc(-c2ccnc3c(C#N)cnn23)c1` [Compound 22, 7-(m-Tolyl)pyrazolo[1,5-a]pyrimidine-3-carbonitrile], the remaining activity at 500 µM under setting [3] is 100%. Same read-out and setting: in the case of `N/C(=N\O)c1cnn2c(-c3cccc(C(F)(F)F)c3)ccnc12` [Compound 23, (Z)-N'-Hydroxy-7–(3-(trifluoromethyl)phenyl)pyrazolo[1,5-a]pyrimidine-3-carboximidamide] it was 94%. On to `CCc1ccc(B(O)O)cc1` [Compound 0054-0178], for which the remaining activity at 3300 µM (tested concentration 3.3 mM, read-out: DdlB RA) amounted to 104%. As to `O=S(=O)(O)CCN1CCOCC1` [Compound 0083-0027], under “tested concentration 2.6 mM, read-out: DdlB RA”, the remaining activity at 2600 µM stood at 91%. In the case of `O=C(Nc1ccccc1C(=O)O)c1ccccc1` [Compound 0090-0118], the remaining activity at 2100 µM under setting [1] came to 101%. For the compound `CCOC(=O)c1ccccc1S(N)(=O)=O` [Compound 0147-0017], the remaining activity at 2200 µM (read-out: DdlB RA) was 99%.

Take `O=S(=O)(O)CCOc1ccccc1` [Compound 0165-0458]: the remaining activity at 2500 µM (read-out: DdlB RA) stood at 100%.

As to `O=[N+]([O-])c1cc(S(=O)(=O)O)ccc1Cl` [Compound 0195-0016], where the note is “read-out: DdlB RA”, the remaining activity at 2100 µM is 100%. With `CC1CCOB(O)O1` (centres unmarked) [Compound 0199-0113], the remaining activity at 4300 µM (tested concentration 4.3 mM, read-out: DdlB RA) was 89%.

In the case of `O=C(Nc1ccccc1C(=O)O)c1ccccc1Cl` [Compound 0342-0148], under setting [1], the remaining activity at 1800 µM came out at 111%. For `NS(=O)(=O)c1ccccc1` [Compound 0402-0167], where the note is “read-out: DdlB RA”, the remaining activity at 3200 µM is 96%. As to `CC(=O)Nc1ccc(S(N)(=O)=O)cc1` [Compound 0405-0094], for the setting “read-out: DdlB RA”, the remaining activity at 2300 µM turned out to be 87%.

As to `Nc1c(Cl)cc(S(N)(=O)=O)cc1Cl` [Compound 0772-0030], the remaining activity at 2100 µM (read-out: DdlB RA) was found to be 93%.

For `Cc1ccc([N+](=O)[O-])cc1S(=O)(=O)O` [Compound 0804-0047], the remaining activity at 2300 µM (read-out: DdlB RA) stood at 93%. For the compound `CC(C)(C)NS(=O)(=O)c1ccccc1` [Compound 0896-4384], the remaining activity at 2800 µM (tested concentration 2.8 mM, read-out: DdlB RA) turned out to be 95%. On to `O=C(O)c1ccccc1NC(=O)C(F)(F)F` [Compound 0931-0537], for which the remaining activity at 2100 µM under setting [1] is 104%. Take `Nc1cccc2cccc(S(=O)(=O)O)c12` [Compound 1091-0114]: under “read-out: DdlB RA”, the remaining activity at 2200 µM stood at 81%. Consider `OB(O)c1ccc(OCc2ccccc2)c(F)c1` [Compound 1222-0119], for which the remaining activity at 2000 µM (read-out: DdlB RA) amounted to 98%. In the case of `COc1ccc(B(O)O)cc1F` [Compound 1222-0120], the remaining activity at 2900 µM (tested concentration 2.9 mM, read-out: DdlB RA) worked out at 93%. As for `OB(O)c1ccc(F)c(F)c1` [Compound 1222-0123], the remaining activity at 3200 µM (read-out: DdlB RA) came to 88%. On to `Cc1c(N)c(=O)n(-c2ccccc2)n1C` [Compound 1254-0226], for which the remaining activity at 2500 µM (read-out: DdlB RA) stood at 95%. For `NS(=O)(=O)c1ccc2c(c1)OCCO2` [Compound 1313-0805], the remaining activity at 2300 µM (read-out: DdlB RA) was 88%. With `NC1=NC(=O)CO1` [Compound 1318-0067], the remaining activity at 5000 µM (residual activity of DdlB, fragment library screening, tested concentration 5.0 mM, read-out: DdlB RA) was 102%. In the case of `Cc1ccc2ccc(S(=O)(=O)O)cc2c1` [Compound 1326-0466], for the setting “read-out: DdlB RA”, the remaining activity at 2200 µM stood at 101%. The same measure, in the same setting: as for `N#Cc1cccc2cccc(S(=O)(=O)O)c12` [Compound 1326-0564], the figure is 96%. Regarding `O=C(O)c1cc(S(=O)(=O)N2CCOCC2)ccc1O` [Compound 1494-0564], the remaining activity at 1700 µM under setting [1] was found to be 92%. Regarding `O=C(O)c1ccccc1C(=O)NCc1cccnc1` [Compound 1514-0633], the remaining activity at 2000 µM under setting [4] is 93%. For `Cc1cccc(OCC(=O)NC(C)C(=O)O)c1` (centres unmarked) [Compound 1683-0903], where the note is “read-out: DdlB RA”, the remaining activity at 2100 µM turned out to be 98%.

Turning to `COC(=O)CCC(=O)Nc1ccc(S(N)(=O)=O)cc1` [Compound 1699-0796], for the setting “read-out: DdlB RA”, the remaining activity at 1700 µM was found to be 89%. `Cc1ccc(O)c(CCc2ccc(O)cc2)n1` [Compound 1733-0143]: the remaining activity at 2100 µM (read-out: DdlB RA) was determined as 90%. For the compound `O=S(=O)(Nc1ccccc1Cl)c1ccc(F)cc1` [Compound 1763-0763], the remaining activity at 1900 µM under setting [1] amounted to 115%. For the compound `CC(=O)NCCc1ccc(S(N)(=O)=O)cc1` [Compound 2332-0866], where the note is “read-out: DdlB RA”, the remaining activity at 2100 µM stood at 94%. For the compound `Cc1ccc(S(=O)(=O)N2CCOCC2)c(C)c1` [Compound 2488-0460], for the setting “read-out: DdlB RA”, the remaining activity at 2200 µM came out at 90%. On to `Cc1cc(N)n(-c2ccc(S(=O)(=O)O)cc2)n1` [Compound 2991-0739], for which, for the setting “read-out: DdlB RA”, the remaining activity at 2000 µM is 97%.

For the compound `Oc1nnc(-c2ccccc2)c(-c2ccccc2)n1` [Compound 3039-0046], under setting [1], the remaining activity at 2000 µM was determined as 104%. As for `COc1ccc2[nH]c(S(=O)(=O)O)nc2c1` [Compound 3260-0314], the remaining activity at 2200 µM (read-out: DdlB RA) worked out at 91%. On to `CCC([N+](=O)[O-])C1(O)C(=O)Nc2ccccc21` (centres unmarked) [Compound 3817-0017], for which the remaining activity at 2100 µM under setting [1] stood at 95%. With `COC(=O)c1ccc(S(=O)(=O)O)o1` [Compound 4055-0046], where the note is “tested concentration 2.4 mM, read-out: DdlB RA”, the remaining activity at 2400 µM stood at 102%.

Consider `Cc1ccc2nc(C)c(CN3CCCCC3C)c(O)c2c1` (centres unmarked) [Compound 4300-0248], for which the remaining activity at 1800 µM under setting [1] was 87%. `O=S(=O)(O)c1ccc(O)c2ncccc12` [Compound 4311-2142]: the remaining activity at 2200 µM (read-out: DdlB RA) was determined as 96%.

For `O=C(COc1cccc(Br)c1)Nc1nnc[nH]1` [Compound 4491-0732], the remaining activity at 1700 µM (read-out: DdlB RA) was found to be 94%.

With `Cc1cccc(C)c1NC(=O)C[C@H](NCCO)C(=O)O` [Compound 4553-3784], the remaining activity at 1800 µM under setting [4] came out at 102%. Regarding `CC(C)n1c(S(=O)(=O)O)nc2ccccc21` [Compound 4587-0081], the remaining activity at 2100 µM (read-out: DdlB RA) came out at 83%.
